Assay [1] deals with T1, non-persulfurated 3MST (Mus musculus, UniProt Q99J99).
T1 construct: The recombinant full-length wild-type mouse 3MST; made in house; host or cells: E. coli JM109 (DE3)
T1 sequence (Q99J99 1-297): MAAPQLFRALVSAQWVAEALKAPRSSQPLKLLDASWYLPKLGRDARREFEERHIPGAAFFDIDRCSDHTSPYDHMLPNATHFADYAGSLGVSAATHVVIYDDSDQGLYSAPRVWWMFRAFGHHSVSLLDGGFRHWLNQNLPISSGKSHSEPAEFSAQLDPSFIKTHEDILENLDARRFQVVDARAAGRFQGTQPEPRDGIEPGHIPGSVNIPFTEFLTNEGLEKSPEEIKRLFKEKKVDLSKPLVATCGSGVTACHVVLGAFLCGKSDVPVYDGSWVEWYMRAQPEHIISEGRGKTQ
The assay is described as follows: ITC analysis with non-persulfurated 3MST. It is filed as binding. The conditions noted are these: 3MP-untreated 3MST. How it is done: The recombinant full-length wild-type mouse 3MST and mutant m3MST (C65S/C255S/C264S) were expressed as an N-terminal His-tagged protein ([…]-3MST) in E. coli JM109 (DE3). The pET44a(+) vector (Novagen) was used as an expression vector. Cells were grown at 37 °C in LB broth (Miller) or 2 × YT broth containing 0.1 g/L ampicillin to OD600 about 0.5, and then protein expression was induced by adding IPTG (final conc. 0.5 mM (LB), 1 mM (2 × YT)). Cells were cultured overnight at 18–20 °C with shaking and harvested at 4 °C by centrifugation at 9,000 rpm for 5 min. Harvested cells were resuspended in lysis buffer containing 0.1 M HEPES-NaOH pH 8, 0.5 M NaCl, 0% or 10% glycerol, 0.5 mM TCEP, 1 mM PMSF, and 1% EtOH, and disrupted by sonication. Cell lysis solutions were centrifuged at 20,000 rpm for 20 min. […] The proteins were further purified on HisTrap HP (GE Healthcare) by increasing the imidazole concentration in buffer containing 0.02 M HEPES pH 8, 0.15 M NaCl, 10% glycerol, and 0.05 mM TCEP until proteins were eluted. Then the His-tag was removed by GST-fusion HRV 3 C protease digestion. […]
Background: In ITC the heat of successive injections is recorded.

The target of assay [2] is T2, persulfurated 3MST (Mus musculus, UniProt Q99J99).
T2 construct: The recombinant full-length wild-type mouse 3MST; made in house; host or cells: E. coli JM109 (DE3)
T2 sequence (Q99J99 1-297): T1 sequence (Q99J99 1-297)
As to the kind of experiment: ITC analysis with persulfurated 3MST. The class given is binding. The following applies: 25 °C; for ΔH (ITC): persulfurated 3MST; for Kd: persulfurated (3MP-treated) 3MST, pH 9, read-out: Dissociation constant Kd (ITC). The procedure:
The recombinant full-length wild-type mouse 3MST and mutant m3MST (C65S/C255S/C264S) were expressed as an N-terminal His-tagged protein ([…]-3MST) in E. coli JM109 (DE3). The pET44a(+) vector (Novagen) was used as an expression vector. Cells were grown at 37 °C in LB broth (Miller) or 2 × YT broth containing 0.1 g/L ampicillin to OD600 about 0.5, and then protein expression was induced by adding IPTG (final conc. 0.5 mM (LB), 1 mM (2 × YT)). Cells were cultured overnight at 18–20 °C with shaking and harvested at 4 °C by centrifugation at 9,000 rpm for 5 min. Harvested cells were resuspended in lysis buffer containing 0.1 M HEPES-NaOH pH 8, 0.5 M NaCl, 0% or 10% glycerol, 0.5 mM TCEP, 1 mM PMSF, and 1% EtOH, and disrupted by sonication. Cell lysis solutions were centrifuged at 20,000 rpm for 20 min. […] The proteins were further purified on HisTrap HP (GE Healthcare) by increasing the imidazole concentration in buffer containing 0.02 M HEPES pH 8, 0.15 M NaCl, 10% glycerol, and 0.05 mM TCEP until proteins were eluted. Then the His-tag was removed by GST-fusion HRV 3 C protease digestion. The proteins were further purified by anion exchange chromatography on a HiTrap Q HP (GE Healthcare) by increasing the NaCl concentration in buffer containing 0.02 M HEPES pH 8, 10% glycerol, 0.5 mM TCEP until proteins were eluted, and then by gel filtration chromatography on Superdex 75 prep grade using buffer containing 0.02 M HEPES pH 7.5, 0.3 M NaCl, 0.5 mM TCEP. Wild-type 3MST was used in ITC analysis and mutant 3MST was used for crystallization.
Persulfurated 3MST was prepared as follows: 3MST-3MP solution (5 μM 3MST, 25 μM 3MP, 20 μM TCEP, 0.02 M glycine-NaOH pH9, 0.1 M NaCl) was incubated for 2 hr at room temperature. To prevent buffer mismatch and to remove unreacted 3MP and reaction product (pyruvate), the reaction solution was exchanged to ITC measurement solution (0.02 M glycine-NaOH pH 9, 0.1 M NaCl, 5% DMSO) using an Amicon Ultra (10 K) (Millipore) or Vivaspin (10 K) (Sartorius). Non-persulfurated 3MST solution was also prepared by buffer exchange. Both inhibitors were dissolved in the ITC measurement solution. Inhibitor solution (0.5 mM compound 1 or 0.25 mM compound 3) were titrated into a protein solution (0.05 mM 3MST) at 25 °C using a MicroCal iTC200 (GE Healthcare). The first injection of 0.4 μL was followed by 18 injections of 2 μL with 150 s between each injection. Each experiment was repeated three times (n = 3). For data analysis, the first injection peak was removed. Data analyses and curve fitting to a single-site binding model were performed by Origin7 SR4 software (OriginLab).

These results are taken from PMC5228037, “Discovery and Mechanistic Characterization of Selective Inhibitors of H2S-producing Enzyme: 3-Mercaptopyruvate Sulfurtransferase (3MST) Targeting Active-site Cysteine Persulfide” (Scientific Reports, 2017).

Usually Kd stands for the constant that tells how readily two partners part at equilibrium.

Entries after “also recorded” stand apart in the source; their conditions may differ.

Take `NC(=O)c1ccsc1NC(=O)CSc1nc2ccccc2c(=O)[nH]1` [compound 1]: the “Binding to non-persulfurated 3MST (ITC heat release)” value in assay [1] is on record as “no heat release; also recorded: do not bind”. Further, in assay [2], the “ΔH (ITC)” value is -9.37 kcal/mol and the Kd was found to be 3000 nM.

Consider `Cc1cc(=O)[nH]c(SCC(=O)c2cccc3ccccc23)n1` [compound 3], for which, in assay [1], the “Binding to non-persulfurated 3MST (ITC heat release)” value is “no heat release; also recorded: do not bind”. Also, in assay [2], the “ΔH (ITC)” value was -11.76 kcal/mol and the Kd came out at 500 nM.
